Assay results taken from patent publication US20080008707A1, “Denatured collagen peptides and uses thereof” (Cell-Matrix, Inc., priority 2006, published 2008).
Square brackets hold non-standard residues; d marks the D form. Ends that are not written are not given here. Hyp = O=C(O)[C@@H]1C[C@@H](O)CN1

Legend:
[1] = tested on: D93 binding to human denatured-collagen IV; assay: Competition ELISA: synthetic peptides blocking D93 binding to heat denatured collagen IV; settings: average of two studies, vs 1% BSA/PBS alone
Method: (§1) The ELISA was conducted as follows: wells of a 96-well microtiter plate (Immulon, 4 HBX flat-bottomed, Thermo Electron Corporation, Waltham, Mass.) were coated with 100 μL/well of dn-collagen IV at 10 μg/mL in Phosphate Buffered Saline (PBS) overnight at 4° C. The plate was washed 3 times (3×) with PBS containing 0.05% (v/v) Tween-20 (PBST) using an automated plate washer.
(§2) The plate was blocked by adding 300 μL/well of 1% BSA (w/v) in PBS for 1 hour at 25° C. followed by washing 3× in PBST as above.
(§3) Solutions of D93 or HUI77 were prepared with various concentrations of peptide or antibody inhibitor and incubate for 15 minutes. D93 or HUI77 was prepared at 200 ng/mL in 1% BSA/PBS.
(§4) For antibody blocking studies using synthetic peptides: peptide inhibitor stock solutions were prepared at 2 mM, 0.2 mM, 0.02 mM, and 0.002 mM in 1% BSA/PBS. 500 μL of a 2 mM peptide solution in 1% BSA/PBS was prepared and diluted 1:10 in 500 μL a total of three times to make peptide inhibitor concentrations.
(§5) 200 μL of D93 or HUI77 at 200 ng/mL solution was combined with 200 μL of peptide or antibody inhibitor solution and incubated for 15 minutes at room temperature.
(§6) D93 or HUI77 with various concentrations of inhibitors (2 mM, 0.2 mM, 0.02 mM, and 0.002 mM) were added to microplate wells and incubated for 1 hour at 25° C. The plate was washed 3× in PBST as above.
(§7) To each microtiter plate well, 100 μL of diluted anti-human IgG or anti-mouse IgM conjugated to horseradish peroxidase (HRP) in PBST was added and incubated for one hour at 25° C.: (a) for D93: Goat anti-human IgG-HRP (Jackson ImmunoResearch, Catalog No. 109-035-088) was used at 1:20,000 and (b) for HUI77: Goat anti-mouse IgM-HRP was used at 1:4,000. Plates were washed 3× in PBST as above.
(§8) Tetramethylbenzidine (TMB) substrate (100 μL; Pierce Chemicals)) was added to wells and the plates were allowed to develop at room temperature for 15 minutes in the dark. Substrate development was stopped by adding 50 μL/well of 2N H2SO4. The microtiter […] plates were read at 450 nm within five minutes of adding the H2SO4. Reactivity was measured with a microplate reader (Molecular Devices, Sunnyvale, Calif.) at a wavelength of 450 nm and analyzed using SOFTMax® PRO4.0 (Molecular Devices). All samples were tested in triplicate.
(§9) Individual peptides with amino acid substitutions and deletions were also synthesized based on the primary and secondary peptide arrays. […] The inhibitory activity of the individual peptides was tested by ELISA as previously described to measure binding of D93 or HUI77 to denatured collagen where peptides and antibodies were prepared at a 2× concentration and pre-incubated for 15 minutes prior to adding to microtiter plates coated with dn-collagen.
(§10) 96-well plates were coated with 100 μL/well of denatured (dn) collagen IV at 10 μg/mL in phosphate buffered saline (PBS) overnight at 4° C. followed by washing the plates in an automated plate washer 3 times in PBS containing 0.05% (v/v) Tween-20 (PBST). Non-specific binding was prevented by blocking the wells by adding 300 μL/well of 1% bovine serum albumin (BSA) (w/v) in PBS for 1 hour (hr) at 25° C. The plates were washed as above.
(§11) Solutions of D93 and HUI77 antibodies were prepared with various concentrations of inhibitor and incubated for 15 minutes. Briefly, 20 mLs of D93 or HUI77 were prepared at 200 ng/mL in 1% BSA/PBS. Solutions of peptide inhibitors (2 mM, 0.2 mM, […]) were prepared in 1% BSA/PBS. Equal volumes of antibodies and peptide inhibitors were combined: 200 μL of D93 or HUI77 (200 ng/mL solution) with 200 μL of each peptide solution.
(§12) 100 μL/well of D93 or HUI77 at 100 ng/mL with various concentrations of inhibitors were added to the wells in triplicate and incubated for 1 hour at 25° C. The plates were washed as described above.
(§13) 100 μL/well of secondary horseradish peroxidase (HRP)-conjugated antibody in PBST was added to each well and incubated for 1 hour (hr) at 25° C. […]

[2] = tested on: HUI77 binding to denatured collagen IV; assay: Competition ELISA: synthetic peptides blocking HUI77 binding to heat denatured collagen IV; parameters: species or system human; settings: average of two studies
Method: as §1, §2, §3, §4, §5, §6, §7, §8, §9, §10, §11, §12, §13

[3] = peptide inhibitor concentration 1 μM
[4] = peptide inhibitor concentration 10 μM
[5] = peptide inhibitor concentration 100 μM
[6] = peptide inhibitor concentration 1000 μM
[7] = peptide inhibitor concentration 10 μM, listed as 2 (18), 10 µM
[8] = peptide inhibitor concentration 100 μM, listed as 2 (18), 100 µM
[9] = peptide inhibitor concentration 1000 μM, listed as 2 (18), 1000 µM
[10] = peptide inhibitor concentration 10 μM, listed as 11 (19), 10 µM
[11] = peptide inhibitor concentration 100 μM, listed as 11 (19), 100 µM
[12] = peptide inhibitor concentration 1000 μM, listed as 11 (19), 1000 µM

Q: What does the source list for “LPGPPGPPGP (LPGP[Hyp]GP[Hyp]GP) [SEQ ID NO: 20]”?
A: % INHIBITION OF BINDING OF D93 TO HUMAN DENATURED-COLLAGEN IV [1, 3]: 12%; % INHIBITION OF BINDING OF D93 TO HUMAN DENATURED-COLLAGEN IV [1, 4]: 41.5%; % INHIBITION OF BINDING OF D93 TO HUMAN DENATURED-COLLAGEN IV [1, 5]: 89%; % INHIBITION OF BINDING OF D93 TO HUMAN DENATURED-COLLAGEN IV [1, 6]: 92.5%; % INHIBITION OF BINDING OF HUI77 TO DENATURED COLLAGEN IV [2, 4]: 10%; % INHIBITION OF BINDING OF HUI77 TO DENATURED COLLAGEN IV [2, 5]: 14%; % INHIBITION OF BINDING OF HUI77 TO DENATURED COLLAGEN IV [2, 6]: 73%

Q: Which results are given for LPGPPGPPGPY [SEQ ID NO: 18]?
A: % INHIBITION OF BINDING OF D93 TO HUMAN DENATURED-COLLAGEN IV ([1]; peptide inhibitor concentration 1 μM, listed as 2 (18), 1 µM): 6%; % INHIBITION OF BINDING OF D93 TO HUMAN DENATURED-COLLAGEN IV [1, 7]: 2%; % INHIBITION OF BINDING OF D93 TO HUMAN DENATURED-COLLAGEN IV [1, 8]: 7%; % INHIBITION OF BINDING OF D93 TO HUMAN DENATURED-COLLAGEN IV [1, 9]: 46%; % INHIBITION OF BINDING OF HUI77 TO DENATURED COLLAGEN IV [2, 7]: 5.5%; % INHIBITION OF BINDING OF HUI77 TO DENATURED COLLAGEN IV [2, 8]: 6.5%; % INHIBITION OF BINDING OF HUI77 TO DENATURED COLLAGEN IV [2, 9]: 4.5%

Q: Which “% INHIBITION OF BINDING OF D93 TO HUMAN DENATURED-COLLAGEN IV” value ([1]; peptide inhibitor concentration 1 μM, listed as 11 (19), 1 µM) does the source give for LPGPPGPPGPY [SEQ ID NO: 19] here?
A: 32%

Q: And the “% INHIBITION OF BINDING OF D93 TO HUMAN DENATURED-COLLAGEN IV” value [1, 10]?
A: 83%

Q: What about the “% INHIBITION OF BINDING OF D93 TO HUMAN DENATURED-COLLAGEN IV” value [1, 11] of the same substance?
A: 93.5%

Q: What about the “% INHIBITION OF BINDING OF D93 TO HUMAN DENATURED-COLLAGEN IV” value [1, 12] of the same substance?
A: 93.5%

Q: What about the “% INHIBITION OF BINDING OF HUI77 TO DENATURED COLLAGEN IV” value [2, 10] of the same substance?
A: 6.5%

Q: What about the “% INHIBITION OF BINDING OF HUI77 TO DENATURED COLLAGEN IV” value [2, 11] of the same substance?
A: 18.5%

Q: And the “% INHIBITION OF BINDING OF HUI77 TO DENATURED COLLAGEN IV” value [2, 12]?
A: 87%

Q: LPGSPG (L[Hyp]GS[Hyp]G) [SEQ ID NO: 26] was tested. Which “% INHIBITION OF BINDING OF D93 TO HUMAN DENATURED-COLLAGEN IV” value [1, 3] did it give?
A: 9.5%

Q: And the “% INHIBITION OF BINDING OF D93 TO HUMAN DENATURED-COLLAGEN IV” value [1, 4]?
A: 3.5%

Q: What about the “% INHIBITION OF BINDING OF D93 TO HUMAN DENATURED-COLLAGEN IV” value [1, 5] of the same substance?
A: 2.5%

Q: What about the “% INHIBITION OF BINDING OF D93 TO HUMAN DENATURED-COLLAGEN IV” value [1, 6] of the same substance?
A: 13.5%

Q: What about the “% INHIBITION OF BINDING OF HUI77 TO DENATURED COLLAGEN IV” value [2, 4] of the same substance?
A: 8%

Q: What about the “% INHIBITION OF BINDING OF HUI77 TO DENATURED COLLAGEN IV” value [2, 5] of the same substance?
A: 10.5%

Q: What about the “% INHIBITION OF BINDING OF HUI77 TO DENATURED COLLAGEN IV” value [2, 6] of the same substance?
A: 8.5%

Q: Which “% INHIBITION OF BINDING OF D93 TO HUMAN DENATURED-COLLAGEN IV” value [1, 3] does the source give for LPGTPG (L[Hyp]GT[Hyp]G) [SEQ ID NO: 27] here?
A: 7%

Q: What about the “% INHIBITION OF BINDING OF D93 TO HUMAN DENATURED-COLLAGEN IV” value [1, 4] of the same substance?
A: 2%

Q: And the “% INHIBITION OF BINDING OF D93 TO HUMAN DENATURED-COLLAGEN IV” value [1, 5]?
A: 4.5%

Q: And the “% INHIBITION OF BINDING OF D93 TO HUMAN DENATURED-COLLAGEN IV” value [1, 6]?
A: 24%

Q: And the “% INHIBITION OF BINDING OF HUI77 TO DENATURED COLLAGEN IV” value [2, 4]?
A: 3.5%

Q: What about the “% INHIBITION OF BINDING OF HUI77 TO DENATURED COLLAGEN IV” value [2, 5] of the same substance?
A: 4.5%

Q: And the “% INHIBITION OF BINDING OF HUI77 TO DENATURED COLLAGEN IV” value [2, 6]?
A: 6%

Q: Which results are given for “PGAKGLPGP ([Hyp]GAKGLPGP) [SEQ ID NO: 17]”?
A: % INHIBITION OF BINDING OF D93 TO HUMAN DENATURED-COLLAGEN IV [1, 3]: 11%; % INHIBITION OF BINDING OF D93 TO HUMAN DENATURED-COLLAGEN IV [1, 4]: 6%; % INHIBITION OF BINDING OF D93 TO HUMAN DENATURED-COLLAGEN IV [1, 5]: 4%; % INHIBITION OF BINDING OF D93 TO HUMAN DENATURED-COLLAGEN IV [1, 6]: 11.5%; % INHIBITION OF BINDING OF HUI77 TO DENATURED COLLAGEN IV [2, 4]: 8%; % INHIBITION OF BINDING OF HUI77 TO DENATURED COLLAGEN IV [2, 5]: 10.5%; % INHIBITION OF BINDING OF HUI77 TO DENATURED COLLAGEN IV [2, 6]: 10%
